Measurements taken from ChEMBL document CHEMBL1201862, “PubChem BioAssay data set” (2004).
Calls of active or inactive are those of the source.

Experiments:
HEK293 [1] = assay: cells; format: functional, cell-based; details: Homo sapiens
[2] = biological target: T1, Nuclear receptor subfamily 0 group B member 1 (Homo sapiens, UniProt P51843); assay: Luminescence-based cell-based high throughput dose response assay for inhibitors of the orphan nuclear receptor subfamily 0, group B, member 1 (DAX1; NR0B1). [Related pubchem assays (depositor defined):AID504766, AID504790]; format: functional
T1 sequence (P51843 whole entry): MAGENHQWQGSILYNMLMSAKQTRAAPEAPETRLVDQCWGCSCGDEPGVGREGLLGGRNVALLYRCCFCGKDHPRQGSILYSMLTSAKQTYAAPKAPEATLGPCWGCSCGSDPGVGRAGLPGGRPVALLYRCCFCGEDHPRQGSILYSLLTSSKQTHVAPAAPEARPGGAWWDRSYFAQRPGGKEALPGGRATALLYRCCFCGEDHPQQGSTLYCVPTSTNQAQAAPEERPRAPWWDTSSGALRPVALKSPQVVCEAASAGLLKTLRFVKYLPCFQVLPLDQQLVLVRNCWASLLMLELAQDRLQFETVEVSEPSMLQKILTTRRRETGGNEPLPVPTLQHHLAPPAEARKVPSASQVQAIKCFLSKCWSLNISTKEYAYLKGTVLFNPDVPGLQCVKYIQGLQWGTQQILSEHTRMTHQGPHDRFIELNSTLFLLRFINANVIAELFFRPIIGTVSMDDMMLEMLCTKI

[3] = biological target: Adenosylmethionine-8-amino-7-oxononanoate aminotransferase (Mycobacterium tuberculosis, UniProt P9WQ81); assay: Mycobacterium tuberculosis BioA enzyme inhibitor Measured in Biochemical System Using Plate Reader - 2163-02_Inhibitor_Dose_CherryPick_Activity.; format: functional, Mycobacterium tuberculosis UT205
[4] = tested on: Streptococcus sp. 'group A'; assay: Streptococcus pyogenes SK(-)GAS viability under kanamycin – luminescence, BacTiterGlo, confirmation, counter-screen for streptokinase expression inhibitor project, dose response (AID 1900); format: functional, organism-based
Streptokinase A = biological target: T2, Streptokinase A (Streptococcus pyogenes serotype M1, UniProt P10520); assay: viability-normalized secreted streptokinase activity reduction – plasminogen activation absorbance, OD405, dose response (AID 1914); format: functional, Streptococcus pyogenes M1 GAS;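 note: secreted streptokinase activity via plasminogen activation per viability signal from cell pellet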
T2 sequence (P10520 whole entry): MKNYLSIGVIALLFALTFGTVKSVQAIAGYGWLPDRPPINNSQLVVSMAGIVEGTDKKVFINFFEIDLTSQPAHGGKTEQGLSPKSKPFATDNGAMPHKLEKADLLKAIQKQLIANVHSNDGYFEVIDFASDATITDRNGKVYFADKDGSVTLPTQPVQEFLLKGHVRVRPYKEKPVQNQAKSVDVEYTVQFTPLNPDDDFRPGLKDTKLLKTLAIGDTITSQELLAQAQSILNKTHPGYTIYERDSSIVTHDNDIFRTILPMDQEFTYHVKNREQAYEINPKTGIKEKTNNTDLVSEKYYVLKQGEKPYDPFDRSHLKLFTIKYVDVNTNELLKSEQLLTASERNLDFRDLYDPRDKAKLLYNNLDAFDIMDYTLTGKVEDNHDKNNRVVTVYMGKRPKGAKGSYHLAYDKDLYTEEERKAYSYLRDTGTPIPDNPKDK

Streptococcus = assay: GAS UMAA2166 growth inhibition – luminescence, BacTiterGlo, counter-screen for streptokinase expression inhibitor project, dose response (AID 1915); format: functional, organism-based;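 note: potency for reduction of bacterial viability or growth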
[5] = biological target: T3, Ubiquitin-conjugating enzyme E2 N (Homo sapiens, UniProt P61088); format: functional;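 note: Dose-response confirmation in a TR-FRET assay detecting UBC13-driven polyubiquitin chain formation, inhibition measured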
T3 sequence (P61088 whole entry): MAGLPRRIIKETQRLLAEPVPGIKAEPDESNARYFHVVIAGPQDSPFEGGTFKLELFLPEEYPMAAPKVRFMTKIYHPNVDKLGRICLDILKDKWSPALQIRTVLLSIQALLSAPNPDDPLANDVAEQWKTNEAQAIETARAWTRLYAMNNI

HEK293 [6] = assay: EBV LMP1 TES2 canonical NF-kB signalling blockers – cell-based, HEK293, luciferase, cherry-pick, dose response (AID 588343); format: functional; details: Homo sapiens
[7] = biological target: T4, Polyadenylate-binding protein 1 (Homo sapiens, UniProt P11940); assay: MLLE binding blockers, Cy5 peptide tracer – biochemical, fluorescence polarization, Cy5-PAM2 peptide, secondary, miRNA deadenylation inhibitor project, dose response (AID 602260); format: functional; details: read-out: IC50_Mean
[8] = biological target: T4, Polyadenylate-binding protein 1; assay: MLLE domain peptide-binding blockers, IC50 – biochemical, fluorescence polarization, FITC-PAM2 peptide, dose response (AID 602259); format: functional; details: read-out: IC50_Mean
[9] = biological target: T5, Aryl hydrocarbon receptor (Homo sapiens, UniProt P35869); details: Potency;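 note: confirmatory quantitative high-throughput screen measuring activation of the AhR signaling pathway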
T5 sequence (P35869 whole entry): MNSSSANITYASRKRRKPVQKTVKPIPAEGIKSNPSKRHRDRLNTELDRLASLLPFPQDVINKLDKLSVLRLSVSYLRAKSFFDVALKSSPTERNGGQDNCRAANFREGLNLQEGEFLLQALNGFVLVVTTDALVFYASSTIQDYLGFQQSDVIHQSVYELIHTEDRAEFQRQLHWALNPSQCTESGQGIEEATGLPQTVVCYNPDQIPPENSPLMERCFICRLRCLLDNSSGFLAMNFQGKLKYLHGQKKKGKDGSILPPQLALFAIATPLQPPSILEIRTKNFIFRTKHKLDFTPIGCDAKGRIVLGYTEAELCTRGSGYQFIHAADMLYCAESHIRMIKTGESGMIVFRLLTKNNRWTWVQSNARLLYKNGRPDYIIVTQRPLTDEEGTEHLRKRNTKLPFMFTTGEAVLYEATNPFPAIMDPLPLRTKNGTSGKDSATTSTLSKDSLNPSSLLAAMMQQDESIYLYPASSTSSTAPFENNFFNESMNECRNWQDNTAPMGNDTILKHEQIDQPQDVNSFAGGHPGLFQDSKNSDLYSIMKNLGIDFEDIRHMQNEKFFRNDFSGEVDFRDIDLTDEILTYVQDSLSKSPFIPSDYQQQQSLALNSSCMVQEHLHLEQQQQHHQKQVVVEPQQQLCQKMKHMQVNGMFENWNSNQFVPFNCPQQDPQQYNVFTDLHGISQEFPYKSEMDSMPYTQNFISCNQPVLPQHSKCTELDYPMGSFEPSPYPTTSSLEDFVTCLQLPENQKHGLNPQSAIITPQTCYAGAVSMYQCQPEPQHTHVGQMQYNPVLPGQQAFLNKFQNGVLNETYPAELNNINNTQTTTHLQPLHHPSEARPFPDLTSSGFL

[10] = Trypanosoma cruzi growth suppression in host cells – NIH3T3 host cells, beta-gal luminescence, confirmation (AID 2044); format: functional, cell-based;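 note: intracellular parasites grown in NIH/3T3 mouse fibroblasts as host cells; luminescent beta-galactosidase reporter signal from transgenic T. cruzi replicating inside host cells; inhibitors lower the luminescence signal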
[11] = NIH3T3 cell viability loss – ATP luminescence, mouse fibroblasts, counter-screen, dose response (AID 2010); format: functional, cell-based;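 note: cells exposed to compound for about 90 hours before reading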
cells = format: functional
Escherichia coli = assay: microbe, parasite or virus in culture
[12] = luciferase reporter signal suppression in cells – H4 neuroglioma cells, luminescence, dose response (AID 1990); format: functional, cell-based
[13] = Luminescence Cell-Based Dose Response HTS to Identify Inhibitors of 5'UTR Stem-Loop Driven Prion Protein mRNA Translation in H4 Neuroglioblastoma Cells. [Related pubchem assays: 1827 (Project Summary), 1813 (Primary HTS)]; format: functional
[14] = alpha-synuclein stem-loop luciferase translation blockers – H4 neuroglioma cells, luminescence, confirmation (AID 1988); format: functional, cell-based
[15] = A549 cell cytotoxicity, dose response, cytotoxicity control, plate reader, cherry-pick, antagonist series (AID 743412); format: functional, cell-based
[16] = blockers of bursicon-stimulated LGR2 cAMP reporter – cell-based, HEK293, CRE-luciferase reporter, cherry pick, set 2, dose response (AID 743343); format: functional;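 note: transfected cells were stimulated with diluted bursicon conditioned medium after compound addition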
[17] = blockade of melanocortin 4 receptor signaling – cell-based, plate reader, cherry pick, counter-screen for LGR2 antagonist project, dose response (AID 743444); format: functional;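 note: transfected HEK 293 cells stimulated with alpha-MSH peptide; potency of inhibitors of the alpha-MSH evoked signal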
[18] = viability loss in HEK293 cells – cell-based, plate reader, cherry-picked samples, cytotoxicity control, dose response (AID 743446); format: functional
[19] = biological target: Hepatocyte nuclear factor 4-alpha (Homo sapiens, UniProt P41235); format: functional, cell-based;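 note: biochemical luminescence-based dose-response counterscreen measuring inhibition of HNF4 dimerization, run alongside a screen for blockers of ABHD5–perilipin-5 interaction; split luciferase complementation of HNF4 fusion proteins in cell lysate measuring dimerization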
[20] = biological target: 26S proteasome non-ATPase regulatory subunit 14 (Homo sapiens, UniProt O00487); assay: inhibition of proteasome subunit RPN11 – biochemical, fluorescence polarization, uHTS hits, confirmation (AID 602368); format: functional
[21] = biological target: 72 kDa type IV collagenase (Homo sapiens, UniProt P08253); assay: Dose Response validation of uHTS RPN11 inhibitor hits using a MMP-2 Fluorescence assay.; format: functional
Prothrombin = Prothrombin (Bos taurus, UniProt P00735); assay: thrombin protease inhibitors – biochemical, fluorescence polarization, uHTS hits, dose response (AID 602369); format: functional
[22] = biological target: Mitogen-activated protein kinase 9 (Homo sapiens, UniProt P45984); format: functional;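 note: value from a kinome panel profiling assay, MAPK9 panel entry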
[23] = microbe, parasite or virus in culture; format: functional; details: Mycobacterium tuberculosis
Vero = assay: viability of Vero cells under compound – cytotoxicity control for flavivirus capping enzyme inhibitors (AID 588742); format: functional; details: Chlorocebus sabaeus
[24] = biological target: Heat shock protein HSP 90-alpha (Homo sapiens, UniProt P07900); format: functional, organism-based
[25] = biological target: Arf-GAP with SH3 domain, ANK repeat and PH domain-containing protein 1 (Homo sapiens, UniProt Q9ULH1); format: functional;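 note: biochemical fluorescence polarization dose–response screen measuring inhibition of ASAP1; ASAP1 GAP domain stimulating GTP hydrolysis by truncated human ARF1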
Large T antigen = Large T antigen (Simian virus 40, UniProt P03070); format: functional, Betapolyomavirus macacae;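 note: Confirmatory-stage PubChem screen for compounds that inhibit SV40 T antigen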
[26] = biological target: Dual specificity protein kinase CLK2 (Homo sapiens, UniProt P49760); format: functional
[27] = biological target: Dual specificity protein kinase CLK4 (Homo sapiens, UniProt Q9HAZ1); format: functional
[28] = biological target: Dual specificity tyrosine-phosphorylation-regulated kinase 1A (Homo sapiens, UniProt Q13627); format: functional;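 note: measured against DYRK1A as one member of a broad kinome profiling panel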

Chain of 72 kDa type IV collagenase (P08253 whole entry): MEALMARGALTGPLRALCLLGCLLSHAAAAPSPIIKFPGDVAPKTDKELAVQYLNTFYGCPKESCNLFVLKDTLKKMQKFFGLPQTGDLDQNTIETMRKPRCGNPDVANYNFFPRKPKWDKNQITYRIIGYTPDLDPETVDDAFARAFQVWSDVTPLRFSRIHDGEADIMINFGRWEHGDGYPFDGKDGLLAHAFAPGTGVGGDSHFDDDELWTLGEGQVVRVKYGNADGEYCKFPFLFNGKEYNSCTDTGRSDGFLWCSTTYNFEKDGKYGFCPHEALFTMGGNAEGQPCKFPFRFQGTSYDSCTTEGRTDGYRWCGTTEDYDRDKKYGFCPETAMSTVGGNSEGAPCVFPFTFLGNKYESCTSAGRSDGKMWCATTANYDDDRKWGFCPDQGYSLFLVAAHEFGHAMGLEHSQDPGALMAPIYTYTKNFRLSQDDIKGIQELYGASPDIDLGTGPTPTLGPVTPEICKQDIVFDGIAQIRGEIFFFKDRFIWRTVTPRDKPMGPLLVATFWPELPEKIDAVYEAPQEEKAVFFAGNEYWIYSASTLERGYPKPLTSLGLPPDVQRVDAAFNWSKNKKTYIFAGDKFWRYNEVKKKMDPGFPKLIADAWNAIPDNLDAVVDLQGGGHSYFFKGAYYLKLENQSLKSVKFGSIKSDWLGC
Chain of Hepatocyte nuclear factor 4-alpha (P41235 whole entry, the tested form may be a part): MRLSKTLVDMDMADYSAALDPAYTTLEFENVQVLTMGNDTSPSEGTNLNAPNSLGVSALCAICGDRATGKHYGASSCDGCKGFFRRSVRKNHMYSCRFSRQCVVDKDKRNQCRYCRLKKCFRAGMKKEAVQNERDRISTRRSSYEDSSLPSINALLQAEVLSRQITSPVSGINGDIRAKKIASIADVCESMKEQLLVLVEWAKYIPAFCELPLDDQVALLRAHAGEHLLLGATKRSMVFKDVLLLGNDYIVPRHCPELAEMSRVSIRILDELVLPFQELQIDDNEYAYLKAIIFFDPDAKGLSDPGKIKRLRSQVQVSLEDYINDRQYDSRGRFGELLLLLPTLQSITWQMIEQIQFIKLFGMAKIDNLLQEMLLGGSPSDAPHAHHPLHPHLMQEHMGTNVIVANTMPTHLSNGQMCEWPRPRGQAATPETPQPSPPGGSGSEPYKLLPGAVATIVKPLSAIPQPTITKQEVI
T4 sequence (P11940 whole entry, the tested form may be a part): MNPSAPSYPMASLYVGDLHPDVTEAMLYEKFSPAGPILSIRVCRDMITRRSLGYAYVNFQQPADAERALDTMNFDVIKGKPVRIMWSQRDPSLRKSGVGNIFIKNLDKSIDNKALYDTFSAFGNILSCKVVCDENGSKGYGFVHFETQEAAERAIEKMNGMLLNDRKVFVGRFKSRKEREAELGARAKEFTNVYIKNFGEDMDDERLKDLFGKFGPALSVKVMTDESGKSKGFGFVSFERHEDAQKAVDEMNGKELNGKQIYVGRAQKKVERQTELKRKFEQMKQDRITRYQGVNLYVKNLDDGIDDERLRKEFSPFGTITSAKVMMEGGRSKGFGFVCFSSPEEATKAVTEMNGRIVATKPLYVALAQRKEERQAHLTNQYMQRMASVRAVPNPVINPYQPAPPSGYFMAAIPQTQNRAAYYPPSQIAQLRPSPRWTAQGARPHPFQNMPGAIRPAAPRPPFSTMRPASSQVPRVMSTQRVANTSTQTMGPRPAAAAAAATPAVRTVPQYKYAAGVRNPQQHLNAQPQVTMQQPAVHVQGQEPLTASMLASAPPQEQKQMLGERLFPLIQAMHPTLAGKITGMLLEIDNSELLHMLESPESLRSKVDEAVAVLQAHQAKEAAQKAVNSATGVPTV
Chain of 26S proteasome non-ATPase regulatory subunit 14 (O00487 whole entry): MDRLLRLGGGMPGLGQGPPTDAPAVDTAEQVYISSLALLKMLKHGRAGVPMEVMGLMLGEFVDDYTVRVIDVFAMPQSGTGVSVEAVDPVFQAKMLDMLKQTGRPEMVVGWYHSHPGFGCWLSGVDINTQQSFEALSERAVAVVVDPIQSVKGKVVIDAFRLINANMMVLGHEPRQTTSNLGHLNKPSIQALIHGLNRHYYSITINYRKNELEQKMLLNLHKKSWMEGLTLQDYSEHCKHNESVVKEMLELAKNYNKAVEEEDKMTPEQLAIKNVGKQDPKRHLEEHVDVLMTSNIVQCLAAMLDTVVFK
Chain of Adenosylmethionine-8-amino-7-oxononanoate aminotransferase (P9WQ81 whole entry): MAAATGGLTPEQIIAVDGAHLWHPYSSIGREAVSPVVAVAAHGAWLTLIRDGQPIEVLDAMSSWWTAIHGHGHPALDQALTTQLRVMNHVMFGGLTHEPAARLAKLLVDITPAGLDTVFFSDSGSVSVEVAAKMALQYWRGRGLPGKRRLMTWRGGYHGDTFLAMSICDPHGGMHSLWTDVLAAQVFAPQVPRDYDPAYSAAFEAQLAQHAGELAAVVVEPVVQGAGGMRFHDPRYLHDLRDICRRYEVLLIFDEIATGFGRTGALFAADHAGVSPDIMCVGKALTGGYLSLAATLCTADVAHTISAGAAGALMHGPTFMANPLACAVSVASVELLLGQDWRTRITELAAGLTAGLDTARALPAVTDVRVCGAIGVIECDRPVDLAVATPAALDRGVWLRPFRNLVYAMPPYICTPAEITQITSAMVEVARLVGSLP
Chain of Dual specificity protein kinase CLK2 (P49760 whole entry): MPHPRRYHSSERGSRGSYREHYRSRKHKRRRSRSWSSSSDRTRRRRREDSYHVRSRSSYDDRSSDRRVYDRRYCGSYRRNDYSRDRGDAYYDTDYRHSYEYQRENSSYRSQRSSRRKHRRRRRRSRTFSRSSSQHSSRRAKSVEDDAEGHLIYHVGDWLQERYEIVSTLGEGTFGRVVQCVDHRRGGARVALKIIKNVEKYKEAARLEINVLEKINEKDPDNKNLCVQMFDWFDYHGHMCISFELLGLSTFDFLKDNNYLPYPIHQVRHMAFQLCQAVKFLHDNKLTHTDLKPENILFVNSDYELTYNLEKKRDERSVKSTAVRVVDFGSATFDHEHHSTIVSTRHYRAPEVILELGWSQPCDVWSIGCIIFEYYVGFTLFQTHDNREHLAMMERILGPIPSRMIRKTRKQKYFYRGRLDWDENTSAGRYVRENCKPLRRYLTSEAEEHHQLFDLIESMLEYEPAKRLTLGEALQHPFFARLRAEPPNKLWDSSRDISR
Chain of Arf-GAP with SH3 domain, ANK repeat and PH domain-containing protein 1 (Q9ULH1 whole entry, the tested form may be a part): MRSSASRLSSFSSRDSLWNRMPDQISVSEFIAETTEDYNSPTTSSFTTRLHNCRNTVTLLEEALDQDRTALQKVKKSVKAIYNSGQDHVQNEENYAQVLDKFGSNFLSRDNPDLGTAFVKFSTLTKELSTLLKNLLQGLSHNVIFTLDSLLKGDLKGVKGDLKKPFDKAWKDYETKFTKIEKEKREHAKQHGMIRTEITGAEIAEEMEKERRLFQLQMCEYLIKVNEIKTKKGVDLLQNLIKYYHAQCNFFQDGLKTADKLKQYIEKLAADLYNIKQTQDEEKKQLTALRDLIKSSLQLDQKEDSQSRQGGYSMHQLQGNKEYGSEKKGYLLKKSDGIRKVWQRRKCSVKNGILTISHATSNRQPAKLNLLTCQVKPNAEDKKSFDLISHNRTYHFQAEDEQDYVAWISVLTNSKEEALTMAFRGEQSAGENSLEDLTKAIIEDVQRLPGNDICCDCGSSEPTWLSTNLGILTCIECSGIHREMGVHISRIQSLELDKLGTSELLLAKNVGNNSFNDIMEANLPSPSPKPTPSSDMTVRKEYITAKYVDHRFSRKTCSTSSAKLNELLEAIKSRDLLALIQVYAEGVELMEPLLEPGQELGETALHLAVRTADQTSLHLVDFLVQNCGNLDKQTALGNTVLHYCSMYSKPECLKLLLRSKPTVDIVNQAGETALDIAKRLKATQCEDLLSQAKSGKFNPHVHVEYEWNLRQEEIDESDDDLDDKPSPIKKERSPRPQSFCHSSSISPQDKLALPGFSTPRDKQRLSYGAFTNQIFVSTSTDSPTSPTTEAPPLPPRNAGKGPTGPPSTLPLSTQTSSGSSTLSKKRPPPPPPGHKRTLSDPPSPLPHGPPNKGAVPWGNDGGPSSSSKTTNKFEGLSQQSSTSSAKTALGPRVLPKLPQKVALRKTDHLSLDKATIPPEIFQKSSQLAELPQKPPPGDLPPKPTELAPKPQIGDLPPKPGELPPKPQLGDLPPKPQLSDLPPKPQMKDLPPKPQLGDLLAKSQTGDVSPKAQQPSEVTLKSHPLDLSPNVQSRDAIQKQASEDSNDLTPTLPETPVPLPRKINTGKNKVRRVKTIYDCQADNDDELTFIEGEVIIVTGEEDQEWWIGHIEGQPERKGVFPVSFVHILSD
Chain of Large T antigen (P03070 whole entry): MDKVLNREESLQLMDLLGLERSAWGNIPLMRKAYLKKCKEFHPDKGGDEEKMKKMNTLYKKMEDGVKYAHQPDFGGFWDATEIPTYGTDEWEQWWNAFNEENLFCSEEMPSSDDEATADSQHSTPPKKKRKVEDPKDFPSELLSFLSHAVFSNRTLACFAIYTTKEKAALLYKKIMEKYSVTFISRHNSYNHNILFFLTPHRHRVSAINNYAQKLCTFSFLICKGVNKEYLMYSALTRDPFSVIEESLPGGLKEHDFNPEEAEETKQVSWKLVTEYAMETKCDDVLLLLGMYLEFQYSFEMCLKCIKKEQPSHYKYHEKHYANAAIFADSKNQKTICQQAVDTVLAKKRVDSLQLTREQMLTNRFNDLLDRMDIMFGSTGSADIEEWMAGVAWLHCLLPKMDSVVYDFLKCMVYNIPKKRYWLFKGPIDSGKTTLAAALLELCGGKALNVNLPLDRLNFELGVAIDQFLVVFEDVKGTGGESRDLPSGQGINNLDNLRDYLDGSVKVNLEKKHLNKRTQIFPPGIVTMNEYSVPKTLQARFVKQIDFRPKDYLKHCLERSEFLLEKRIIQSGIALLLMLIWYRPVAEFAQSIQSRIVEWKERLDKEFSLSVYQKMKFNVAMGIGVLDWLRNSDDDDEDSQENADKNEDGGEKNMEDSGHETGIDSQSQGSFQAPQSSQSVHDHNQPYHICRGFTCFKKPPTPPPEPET

Structure (SMILES): O=S(=O)(NCC1NCCc2ccccc21)c1ccccc1 (stereo not given)
- IC50 (HEK293 [1]): > 67.6 µM (inactive)
- IC50 [2]: > 67.6 µM (inactive)

Structure (SMILES): COC(=O)c1sc(N)c(C(=O)OC)c1CSc1nnc(-c2ccccc2Cl)n1C
- AC50 [3]: 1.07 µM (active)

Structure (SMILES): CCOc1ccc(NC(=S)N=Nc2c(O)[nH]c3ccccc23)cc1
- EC50 [4]: 0.465 µM (active)
- EC50 (Streptokinase A): > 150 µM (not active)
- EC50 (Streptococcus): 5.53 µM (active)
- IC50 [5]: > 20 µM (inactive)
- AC50 (HEK293 [6]): 2.7 µM (active)
- IC50 [7]: > 66 µM (inactive)
- IC50 [8]: > 66 µM (inactive)

Structure (SMILES): COc1cc(Cl)c(OC)cc1N
- AC50 [9]: 56.2 µM (inconclusive)

Structure (SMILES): Cc1ccc(N/N=C2\CS(=O)(=O)N(C)c3ccsc32)cc1
- EC50 [4]: 1.25 µM (active)
- EC50 (Streptokinase A): 4.04 µM (active)
- EC50 [10]: 2.21 µM (active)
- EC50 [11]: > 60 µM (not active)
- EC50 (Streptococcus): 11.3 µM (active)
- IC50 (cells): 21.2 µM (active)
- IC50 (HEK293 [1]): > 67.5 µM (inactive)
- IC50 [2]: > 67.5 µM (inactive)

Structure (SMILES): Cc1cccc(CN2CCN(C(S)=Nc3ccccc3)CC2)c1
- IC50 (HEK293 [1]): > 67.6 µM (inactive)
- IC50 [2]: > 67.6 µM (inactive)

Structure (SMILES): C=CCN(CC=C)S(=O)(=O)c1ccc(NC(=S)NC(=O)C2CC2)cc1
- EC50 [4]: > 150 µM (not active)
- EC50 (Streptokinase A): > 150 µM (not active)
- EC50 (Streptococcus): > 150 µM (not active)
- AC50 (Escherichia coli): 29.4 µM (active)

Structure (SMILES): Cc1ccnc(NC(=O)CCC(=O)c2cccs2)c1
- EC50 [12]: 4.73 µM (inconclusive)
- EC50 [13]: 2.97 µM (active)
- EC50 [14]: 2.36 µM (active)
- AC50 (HEK293 [6]): 3 µM (active)
- AC50 [15]: > 52 µM (inactive)
- AC50 [16]: 2.38 µM (active)
- AC50 [17]: 2.17 µM (active)
- AC50 [18]: 34.9 µM (active)

Structure (SMILES): COc1ccc(NC(=O)C(c2cccc3ccccc23)n2c(=O)c(-c3ccco3)nc3ccccc32)cc1 (stereo not given)
- IC50 [19]: 25.5 µM (inactive)

Structure (SMILES): Cc1ccc(C)c(OCCn2cc(/C=C(/C#N)C(=O)NCC3CCCO3)c3ccccc32)c1 (stereo not given)
- IC50 [20]: 27.5 µM (active)
- IC50 [21]: > 100 µM (inactive)
- IC50 (Prothrombin): 45.4 µM (active)

Structure (SMILES): CC(C)(C)c1cc(NC(=O)c2cc3ccccc3s2)n(-c2ccc(OCC(=O)O)cc2)n1
- Ki [22]: 3.98 µM (active)

Structure (SMILES): c1ccc(-n2cnc3cc(NCc4cccs4)ccc32)cc1
- CC50 [23]: > 40 µM (active)
- CC50 (Vero): > 40 µM (active)

Structure (SMILES): Cc1cc(N2CCCC2)c(F)cc1/C=C\[N+](=O)[O-]
- IC50 [20]: 14.7 µM (active)
- IC50 [21]: > 100 µM (inactive)
- IC50 (Prothrombin): 20 µM (active)

Structure (SMILES): COc1ccc(NC(=O)C(c2ccccc2)n2c(=O)c(-c3ccco3)nc3ccccc32)cc1 (stereo not given)
- IC50 [19]: 12.8 µM (inactive)

Structure (SMILES): COC(=O)c1ccc(NC(=O)c2cn(-c3ccccc3)nc2-c2ccncc2)cc1
- EC50 [10]: 1.9 µM (active)
- EC50 [11]: > 60 µM (not active)
- AC50 [24]: 4.18 µM (active)
- IC50 [25]: 17.2 µM (inactive)

Structure (SMILES): O=c1c(-c2ccc([N+](=O)[O-])cc2)coc2c(O)c(O)ccc12
- IC50 (Large T antigen): 13.8 µM (active)
- CC50 (Vero): 21.4 µM (active)

Structure (SMILES): O=c1[nH]c2ccc(Br)cc2n1-c1cc(Cl)c(O)cc1O
- Ki [26]: 6.31 µM (active)
- Ki [27]: 3.16 µM (active)
- Ki [28]: 5.01 µM (active)

Structure (SMILES): O=C(COc1ccc2ccc(=O)oc2c1)N1CCN(c2ccc(F)cc2)CC1
- AC50 [3]: 1 µM (active)

Structure (SMILES): Oc1ccc2cc(SSc3ccc4cc(O)ccc4c3)ccc2c1
- AC50 [9]: 56.2 µM (inconclusive)
